Test in all cases: NCI anticancer screen, dose series, 48 h
Experiment [1] concerns SW-620.
Experiment [2] relates to CCRF-CEM.
Experiment [3] concerns SK-MEL-5.
For experiment [4], the system named is M14.
For experiment [5], the system named is SF-268.
For experiment [6], the system named is EKVX.
For experiment [7], the system named is K562.
Experiment [8] deals with DMS-114.
Experiment [9] concerns SK-MEL-2.
Experiment [10] has as its system 786-0.
Experiment [11] has as its system SF-295.
Experiment [12] deals with SK-OV-3.
In experiment [13] the test system is LOX IMVI.
In experiment [14] the test system is NCI-H522.
The test system of experiment [15] is RPMI-8226.
Experiment [16] relates to SR.
Experiment [17] has as its system ACHN.

Molecules are shown by their SMILES.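 Protocol summary: plate cells (96-well), add compound at 5 concentrations, incubate 48 h, interpolate endpoints linearly. GI50 is the concentration that inhibits growth by half.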 Active and inactive are the calls of the source. Rule as the data show it: active = GI50 up to about 1.1 µM and inactive = higher.

With `O=C1/C(=C/c2ccccc2)CN(C(=O)Oc2ccc([N+](=O)[O-])cc2)C/C1=C\c1ccccc1`, the GI50 in experiment [1] was 0.59 µM (active); in experiment [2], 1.38 µM (inactive); in [3] it was 3.64 µM (inactive); in [4], 0.908 µM (active); in experiment [5] it was 5.09 µM (inactive); in experiment [6], > 10 µM (inactive). The GI50 is 0.859 µM (active) in experiment [7]; 2.11 µM (inactive) in experiment [8]; 14.2 µM (inactive) in experiment [9]; 4.49 µM (inactive) in [10]; 1.33 µM (inactive) in [11]; > 10 µM (inactive) in experiment [12]. The GI50 is 0.676 µM (active) in experiment [13]; 3.18 µM (inactive) in experiment [14]; 0.0551 µM (active) in experiment [15]; 2.1 µM (inactive) in [16]; 6.65 µM (inactive) in experiment [17].

As for `O=[N+]([O-])c1ccc(-c2ccc(/C=N/n3c(S)nnc3-c3ccc(Cl)cc3)o2)cc1`, the GI50 in experiment [1] is 29 µM (inactive); in experiment [2] it was 37.2 µM (inactive); in [3], 20.5 µM (inactive); in experiment [4], 16.1 µM (inactive); in experiment [5], 24.7 µM (inactive); in experiment [6], > 100 µM (inactive). Also, the GI50 in experiment [7] was 19.2 µM (inactive); in experiment [8], 95.3 µM (inactive); in [9], 34.2 µM (inactive); in experiment [10] it was 19.2 µM (inactive); in experiment [11], 24.1 µM (inactive); in experiment [12], > 40.7 µM (inactive). For the same compound, the GI50 in experiment [13] is 47.5 µM (inactive); in experiment [14] it was 28.6 µM (inactive); in experiment [15] it was 16.6 µM (inactive); in [16], 22.3 µM (inactive); in [17], 26 µM (inactive).

`Cc1cc(CC(O)c2ccc(Cl)c(Cl)c2)nc(O)n1` (stereo not given): the GI50 in [1] is 36.1 µM (inactive); in [2], 48.8 µM (inactive); in experiment [3], 57.4 µM (inactive); in experiment [4], 32.8 µM (inactive); in experiment [5], 38.5 µM (inactive); in experiment [6], 29.8 µM (inactive). The GI50 in [7] is 50.1 µM (inactive); in experiment [8], 8.49 µM (inactive); in experiment [9] it was 61.7 µM (inactive); in [10], 17.6 µM (inactive); in experiment [11], 30.3 µM (inactive); in experiment [12] it was 35.2 µM (inactive). Besides, the GI50 in experiment [14] is 20.2 µM (inactive); in experiment [15], 71.9 µM (inactive); in experiment [16], 24.7 µM (inactive); in experiment [17], 31.3 µM (inactive).

In the case of `CCCCCCn1c(SCC)c2ccccc2c1-c1nc(F)nc(F)n1`, the GI50 in experiment [1] is > 100 µM (inactive); in [2] it was 36 µM (inactive); in [3], > 100 µM (inactive); in [4] it was > 100 µM (inactive); in [5], > 100 µM (inactive); in [6], > 100 µM (inactive). The GI50 in experiment [7], in [8], in experiment [9], in [10], in experiment [11] and in [12] was > 100 µM (inactive) in each case. Also, the GI50 is > 100 µM (inactive) in experiment [13]; > 100 µM (inactive) in experiment [14]; > 100 µM (inactive) in experiment [15]; 88.7 µM (inactive) in [16]; > 100 µM (inactive) in experiment [17].

Consider `C/C(CC(=O)Nc1cc(C)ccc1C)=N/N=C(N)N`, for which the GI50 in experiment [1], in experiment [2], in experiment [3], in experiment [4], in experiment [5] and in [6] was > 100 µM (inactive) in each case. For the same compound, the GI50 in experiment [7], in experiment [8], in experiment [9], in experiment [10], in experiment [11] and in [12] was > 100 µM (inactive) throughout. The GI50 in experiment [13], in experiment [14], in experiment [15] and in experiment [17] was > 100 µM (inactive) each time.

For the compound `N=C(N)NS(=O)(=O)c1ccc(NC(=O)c2cccc3c(Nc4ccc(S(=O)(=O)N=C(N)N)cc4)c4ccc(Cl)cc4nc23)cc1`, the GI50 in experiment [1] is 62.4 µM (inactive); in experiment [2], 55 µM (inactive); in [3], 28.6 µM (inactive); in experiment [4], 70.1 µM (inactive); in experiment [5], 48.4 µM (inactive); in experiment [6], 96.8 µM (inactive). Further, the GI50 in [7] was 41.3 µM (inactive); in [8] it was 31.2 µM (inactive); in [9] it was > 100 µM (inactive); in [10], > 100 µM (inactive); in experiment [11] it was > 100 µM (inactive); in experiment [12], 32.1 µM (inactive). For the same compound, the GI50 was 37.2 µM (inactive) in [13], 30.4 µM (inactive) in [14], 43.9 µM (inactive) in experiment [15] and 49.7 µM (inactive) in experiment [17].

For the compound `CC(Cn1c2c3ccccc3ccc2c2oc(=O)c3ccccc3c21)N(C)C` (stereo not given), the GI50 in experiment [1], in experiment [2], in experiment [4], in experiment [5], in experiment [6] and in experiment [7] was > 100 µM (inactive) throughout. Besides, the GI50 in experiment [8], in [9], in experiment [10], in [11], in experiment [13] and in [14] was > 100 µM (inactive) each time. The GI50 in [15], in experiment [16] and in experiment [17] was > 100 µM (inactive) throughout.

For the compound `O=C1C(Br)=CC2(C=C1Br)CCNC1=C2C(=O)c2ccccc2C1=O`, the GI50 in [1] was 9.98 µM (inactive); in experiment [2], 3.57 µM (inactive); in experiment [3], 11.6 µM (inactive); in [4], 18.4 µM (inactive); in experiment [5], 11.2 µM (inactive); in experiment [6], 38.5 µM (inactive). The GI50 is 7.89 µM (inactive) in experiment [7]; 5.7 µM (inactive) in experiment [8]; 14.9 µM (inactive) in experiment [9]; 11.9 µM (inactive) in experiment [10]; 16.8 µM (inactive) in experiment [11]; 30.4 µM (inactive) in experiment [12]. The GI50 in experiment [13] is 4.24 µM (inactive); in experiment [14] it was 3.58 µM (inactive); in experiment [15], 4.75 µM (inactive); in experiment [16] it was 2.95 µM (inactive); in [17], 14.1 µM (inactive).

Take `Nc1ncnc2c1ncn2CCCC(c1ccccc1)P(=O)(O)O` (stereo not given): the GI50 in [1], in experiment [3], in experiment [5], in experiment [6], in [8] and in experiment [9] was > 100 µM (inactive) in each case. Also, the GI50 in [10], in [11], in experiment [12], in experiment [13], in [14] and in experiment [16] was > 100 µM (inactive) in each case. In addition, the GI50 in experiment [17] is > 100 µM (inactive).

Regarding `CC(=O)OCC1OC(OC2CC3C(C)(C)C(OC(C)=O)CC[C@]3(C)C3CCC45CC4(CC[C@H]5C(C)CC(O)C4OC4(C)C)[C@]23C)C(O)C(O)C1O` (stereo not given in full), the GI50 in experiment [1] was 2.43 µM (inactive); in experiment [2], 1.04 µM (active); in experiment [3], 2.69 µM (inactive); in experiment [4] it was 2.03 µM (inactive); in experiment [5], 2.44 µM (inactive); in experiment [6], 3.11 µM (inactive). Moreover, the GI50 was 1.13 µM (inactive) in experiment [7]; 1.58 µM (inactive) in [8]; 1.84 µM (inactive) in [9]; 2.7 µM (inactive) in [10]; 1.69 µM (inactive) in experiment [11]; 2.3 µM (inactive) in experiment [12]. The GI50 in experiment [13] was 1.63 µM (inactive); in [14], 1.59 µM (inactive); in experiment [15] it was 1.95 µM (inactive); in experiment [16] it was 2.65 µM (inactive); in [17], 2.21 µM (inactive).

Take `CC1(C)CC[C@]2(C(=O)O)CCC3(C)C(=CCC4[C@@]5(C)CC[C@H](OC6OCC(O)C(O)C6OC6OC(CO)C(O)C(O)C6O)C(C)(C)C5CC[C@]43C)C2C1` (stereo not given in full): the GI50 in experiment [1] is 2.15 µM (inactive); in [3], 3.98 µM (inactive); in experiment [4], 1.87 µM (inactive); in [5], 2.4 µM (inactive); in experiment [6], 1.79 µM (inactive); in experiment [8], 2.04 µM (inactive). Further, the GI50 in experiment [10] is 2.04 µM (inactive); in experiment [11] it was 1.79 µM (inactive); in [12], 2.22 µM (inactive); in experiment [13] it was 1.95 µM (inactive); in experiment [15] it was 2.35 µM (inactive); in experiment [16], 2.29 µM (inactive). For the same compound, the GI50 in [17] is 1.94 µM (inactive).

`CSc1ccc2c(cc1=O)[C@@H](NC(=O)c1ccc(F)cc1)CCc1cc(O)c(O)c(O)c1-2`: the GI50 in experiment [1] was > 100 µM (inactive); in experiment [2] it was 56 µM (inactive); in experiment [3], > 100 µM (inactive); in experiment [4], > 100 µM (inactive); in experiment [5], > 100 µM (inactive); in experiment [6] it was > 100 µM (inactive). Besides, the GI50 is 64.3 µM (inactive) in experiment [7]; > 100 µM (inactive) in [8]; > 100 µM (inactive) in [9]; > 100 µM (inactive) in [10]; > 100 µM (inactive) in [11]; > 100 µM (inactive) in [12]. The GI50 in [13], in experiment [14], in experiment [15] and in [17] was > 100 µM (inactive) each time.

For the origin of these results see ChEMBL document CHEMBL1201862, “PubChem BioAssay data set” (2004).
